# Measured values: PMC12022103 (Scientific Reports, 2025)
# Non-standard residues stand in square brackets, D forms with d. Residues, ends and D or L forms follow the SMILES beside them. No end group written: not given here.
# Legend:
# E. coli = experiment: Cell morphology by phase contrast microscopy; assay type: cell-based, Escherichia coli; details: 10× MIC, 5 min exposure, preliminary
# Protocol: To explore the potential correlation between general membrane destabilization and our FoR data, we conducted a brief preliminary examination of E. coli cell morphology following a pulsed exposure to our top four peptide candidates at 10× MIC. Cells were imaged by using phase contrast microscopy after 5 min of exposure. […] However, additional research using complementary techniques are necessary to conclusively characterize their killing mechanism.
# E. coli ATCC 25922 [1] = experiment: Frequency of resistance determination (p0 method); assay type: cell-based, Escherichia coli; details: E. coli ATCC 25922, 40 cultures, 4 × MIC, 24–48 h, colistin as reference, triplicate
# Excerpt: The method was based on the Fluctuation assay (p0 method; Luria and Delbrück) for determination of mutation rate[33],[34], and optimized for selection of mutants in liquid medium. Colistin sulfate (Thermo Scientific, 15575146) served as control in experimentation. Initially, the MIC of colistin and peptides was verified through broth dilution in 96-well plates (as detailed above). In order to account for potential phenotypic heterogeneity among colonies derived from the same frozen stock, multiple colonies of E. coli ATCC 25922 were picked and inoculated in 2 mL MHII broth overnight at 37°C with continuous shaking. The following day, aliquots of colistin and peptide solutions were prepared in MHII broth at working concentrations 20 times the MIC. […] The plates were incubated at 37 °C in a humidified box, and OD was measured at 600 nm using a microplate reader (Victor Nivo, Perkin-Elmer) after 0, 24 and 48 h of incubation. […]
# To calculate the viable bacterial counts, the overnight culture was serially diluted 10-fold in MHII, after which 5 µl of the 10^− 3 – 10^− 9 dilutions were spotted onto MHII agar plates and incubated overnight at 37 °C. CFUs were counted the following day to determine CFU/mL of the overnight culture. […] The mutation rate, or frequency of resistance, was calculated using the following formula: […]
# E. coli ATCC 25922 [2] = experiment: Time-kill experiments; assay type: cell-based, Escherichia coli; details: E. coli ATCC 25922, at the MBC; detection limit 100 CFU/mL; triplicate
# Protocol: (§1) Bacterial strains were plated on cation-adjusted Mueller-Hinton (MH II) agar plates and incubated at 37 °C overnight. The day after single colonies were picked and resuspended in sterile-filtered saline (0.9%). The OD of each bacterial suspension was adjusted to McFarland standard 0.5 using a spectrophotometer (UV-1800, Shimadzu), and the suspension further diluted 1:100 in MH II broth, corresponding to 10^6 colony forming units (CFU) per mL. The inoculum suspension was used for MIC, MBC, time-kill and protease stability assessments as described below. To ensure correct inoculum sizes, 10 µL of the bacterial suspensions were diluted 2000-fold in sterile-filtered saline (0.9%) and 100 µL plated onto MH II agar plates. After overnight incubation at 37 °C, colonies were counted. If found to be outside the acceptable number (20–80 colonies per plate corresponding to ∼10^6 CFU/mL), results from further analyses were discarded.
# Four Eppendorf tubes were set up containing 0.5 mL of E. coli inoculum, prepared as described above. To the tubes were added peptides corresponding to final concentrations of ½×MIC, MIC and 2×MIC (see Fig. 3). One tube served as growth control (no added peptide). Then, 50 µL of culture were sampled from the tubes at timepoints 0, 0.25, 0.5, 2, 5 and 24 h. […] The day after, CFU/mL was calculated based on colony counts and dilution factor. […]
# Solubility of peptides = assay type: physicochemical; details: solvent as stated in the value
# E. coli ATCC 25922 [3] = experiment: Minimum inhibitory concentration (MIC), broth dilution; assay type: cell-based, Escherichia coli; details: D-form versus all-L parent
# Protocol: (§2) The panel of bacterial reference strains used in this work for assessment of synthetic peptide activity originated from the American Type Culture Collection (ATCC) and was obtained from the Diagnostic section at the Department of Microbiology, Oslo University Hospital. The strains used were as follows: E. coli ATCC 25922, K. pneumoniae ATCC 13883, A. baumannii ATCC 17978, S. aureus ATCC 29213, and E. faecalis ATCC 29212.
# as §1
# (§3) The peptides were serially diluted (two-fold) directly in 96-well plates (Greiner, MICROPLATE, 96 WELL, PP, U-BOTTOM, NATURAL, 650261) containing MH II broth, corresponding to concentrations in the range 256–0.5 µM. An equal volume of bacterial suspension was added to each well, resulting in a final inoculum of 5 × 10^5 CFU/mL and final peptide concentrations of 128–0.25 µM. The 96-well plates were incubated for 18–24 h at 37 °C, after which the OD of each well was measured at 600 nm in a plate reader (Victor Nivo, Perkin-Elmer). The minimum inhibitory concentration (MIC) was estimated as the lowest concentration of peptide that produced OD600 measurements similar to the control wells containing no bacteria. The experiments were performed in triplicate. Two-fold variations in MIC values were often observed between replicates.
# E. faecalis ATCC 29212 = experiment: as above; assay type: cell-based; details: D-form versus all-L parent
# Protocol: as §2, §1, §3
# S. aureus ATCC 29213 = experiment: as above; assay type: cell-based; details: D-form versus all-L parent
# Protocol: as §2, §1, §3
# K. pneumoniae ATCC 13883 = experiment: as above; assay type: cell-based; details: D-form versus all-L parent
# Protocol: as §2, §1, §3
Compound,Membrane morphology of cells (in words) (E. coli),Frequency of resistance (FoR) (in words) (E. coli ATCC 25922 [1]),Time after which CFU/ml was below the detection limit (E. coli ATCC 25922 [2]) [h],Solubility (in words) (Solubility of peptides),"Fold improvement (lowering) of MIC compared to parent 1a-N10, E. coli (E. coli ATCC 25922 [3]) [fold]","Fold lowering of MIC compared to parent 1a-N10, E. faecalis (E. faecalis ATCC 29212) [fold]","Fold lowering of MIC compared to parent 1a-N10, S. aureus (S. aureus ATCC 29213) [fold]","Fold improvement (lowering) of MIC compared to parent 1a-N10, K. pneumoniae (K. pneumoniae ATCC 13883) [fold]"
VKKKKKAVLQLILKF-NH2 [1a-N10],no explicit membrane defects,low resistance frequencies,0.5,soluble in PBS alone,,,,
CC[C@@H](C)[C@@H](NC(=O)[C@@H](CC(C)C)NC(=O)[C@@H](CCC(N)=O)NC(=O)[C@@H](CC(C)C)NC(=O)[C@H](NC(=O)[C@@H](C)NC(=O)[C@@H](CCCCN)NC(=O)[C@@H](CCCCN)NC(=O)[C@@H](CCCCN)NC(=O)[C@@H](CCCCN)NC(=O)[C@@H](CCCCN)NC(=O)[C@H](N)C(C)C)C(C)C)C(=O)N[C@H](CC(C)C)C(=O)N[C@H](CCCCN)C(=O)N[C@H](Cc1ccccc1)C(N)=O [D-1a-N10] (H-[dV][dK][dK][dK][dK][dK][dA][dV][dL][dQ][dL][dI][dL][dK][dF]-NH2; N-terminus assumed),indications of changes in membrane morphology,eliminated mutagenicity,,,2,4,8,2
